Laboratory results published in patent US7371746B2, “1,2,4-Thiadiazole compounds and pests controlling composition containing the same” (Sumitomo Chemical Company Limited, priority 2003, dated 2008).

test system: Aphis gossypii (cotton aphid); assay: Test Example 1: spray test on cucumber plants infested with cotton aphid; type: in vivo; details: 144 h, 500 ppm active ingredient, spray liquid 20 ml/cup on cucumber plant, sixth day after the application
Experimental: The formulation of each of the present compounds (3), (4), (5), (6), (7), (8), (9), (10), (11), (14), (15a), (15b), (16a), (17a), (17b), (18a), (18b), (19), (20), (21) and (22) according to Formulation Example 5 was diluted with water so that the active ingredient concentration came to 500 ppm to prepare a spray liquid. The seeds of cucumber were planted in a polyethylene cup and it was grown until the first true leaf was developed. On the plant about twenty Aphis gossypii (cotton aphid) are allowed to be parasitic. On the next day, the above spray liquid was applied at a ratio of 20 ml/cup to the cucumber plant. On the sixth day after the application, the number of Aphis gossypii was examined, and the control value was determined by the following formula: Control value (%)={1−(Cb×Tai)/(Cai×Tb)}×100 wherein the variables in the formula have the following meanings: Cb: the number of insects before the treatment in the non-treated area; Cai: the number of insects at the time of observation in the non-treated area; Tb: the number of insects before the treatment in the treated area; and Tai: the number of insects at the time of observation in the treated area.

Row | Structure (SMILES) | pest or weed control at 500 ppm [%]
1 | CC#CCOc1nsc(N2CCCCC2)n1 [present compound (3), 3-(2-butynyloxy)-5-piperidino-1,2,4-thiadiazole] | ≥ 90
2 | CCC#CCOc1nsc(N2CC(C)CC(C)C2)n1 (stereo not drawn) [present compound (16a), 3-(2-pentynyloxy)-5-(3,5-dimethylpiperidino)-1,2,4-thiadiazole] | ≥ 90
3 | CC#CCOc1nsc(N2CC(C)CC(C)C2)n1 (stereo not drawn) [present compound (15a), 3-(2-butynyloxy)-5-(3,5-dimethylpiperidino)-1,2,4-thiadiazole] | ≥ 90
4 | CCC#CCOc1nsc(N2CCOCC2)n1 [present compound (10), 3-(2-pentynyloxy)-5-morpholino-1,2,4-thiadiazole] | ≥ 90
5 | CCC#CCOc1nsc(N2CCCC(C)C2)n1 (stereo not drawn) [present compound (8), 3-(2-pentynyloxy)-5-(3-methylpiperidino)-1,2,4-thiadiazole] | ≥ 90
6 | CCC#CCOc1nsc(N2CC(C)OC(C)C2)n1 (stereo not drawn) [present compound (18a), 3-(2-pentynyloxy)-5-(2,6-dimethylmorpholino)-1,2,4-thiadiazole] | ≥ 90
7 | CC#CCOc1nsc(N2CCCC(C)C2)n1 (stereo not drawn) [present compound (7), 3-(2-butynyloxy)-5-(3-methylpiperidino)-1,2,4-thiadiazole] | ≥ 90
8 | CCC#CCOc1nsc(N2CCCCC2C)n1 (stereo not drawn) [present compound (6), 3-(2-pentynyloxy)-5-(2-methylpiperidino)-1,2,4-thiadiazole] | ≥ 90
9 | CCC#CCOc1nsc(N2CCCCCC2)n1 [present compound (14), 3-(2-pentynyloxy)-5-hexamethyleneimino-1,2,4-thiadiazole] | ≥ 90
10 | CCC#CCOc1nsc(N2CCCCC2)n1 [present compound (4), 3-(2-pentynyloxy)-5-piperidino-1,2,4-thiadiazole] | ≥ 90
11 | CC#CCOc1nsc(N2CCCCC2C)n1 (stereo not drawn) [present compound (5), 3-(2-butynyloxy)-5-(2-methylpiperidino)-1,2,4-thiadiazole] | ≥ 90
12 | CC#CCOc1nsc(N2CC(C)OC(C)C2)n1 (stereo not drawn) [present compound (17a), 3-(2-butynyloxy)-5-(2,6-dimethylmorpholino)-1,2,4-thiadiazole] | ≥ 90
13 | CC#CCOc1nsc(N2CCCC(C(F)(F)F)C2)n1 (stereo not drawn) [present compound (22), 3-(2-butynyloxy)-5-(3-trifluoromethylpiperidino)-1,2,4-thiadiazole] | ≥ 90
14 | CC#CCOc1nsc(N2CCC(C)CC2)n1 [present compound (11), 3-(2-butynyloxy)-5-(4-methylpiperidino)-1,2,4-thiadiazole] | ≥ 90
15 | CC#CCOc1nsc(N2CCOCC2)n1 [present compound (9), 3-(2-butynyloxy)-5-morpholino-1,2,4-thiadiazole] | ≥ 90
16 | CC#CCOc1nsc(N2CC(CC)CC(CC)C2)n1 (stereo not drawn) [present compound (19), 3-(2-butynyloxy)-5-(3,5-diethylpiperidino)-1,2,4-thiadiazole] | ≥ 90
17 | C#CCOc1nsc(N2CC(C)CC(C)C2)n1 (stereo not drawn) [present compound (20), 3-(2-propynyloxy)-5-(3,5-dimethylpiperidino)-1,2,4-thiadiazole] | ≥ 90
18 | CC#CC(C)Oc1nsc(N2CC(C)CC(C)C2)n1 (stereo not drawn) [present compound (21), 3-(1-methyl-2-butynyloxy)-5-(3,5-dimethylpiperidino)-1,2,4-thiadiazole] | ≥ 90
